Values quoted from earlier work in patent publication US7879572B2, “Regulation of F1-ATPase beta subunit cellular location” (Board of Supervisors of Louisiana State University And …, priority 2004, dated 2011).

Columns and labels:
islet cells = conditions: 8-Br-cAMP 1 mM, independent of extracellular Ca2+

For `Oc1ccc2c3c1O[C@H]1c4[nH]c5c(c4C[C@@]4(O)[C@@H](C2)N(CC2CC2)CC[C@]314)C[C@@]1(O)[C@H]2Cc3ccc(O)c4c3[C@@]1(CCN2CC1CC1)[C@H]5O4` [nor-Binaltorphamine (BNI), nor-Binaltorphamine], the selective fat intake (kappa-opioidergic antagonist) is listed as “mimicked the effect of enterostatin”.
For `Nc1ncnc2c1nc(Br)n2[C@@H]1O[C@@H]2COP(=O)(O)O[C@H]2[C@H]1O` [8-Br-cAMP], the “effect on enterostatin inhibition of insulin secretion” value (islet cells) is given as “blocked”.
In the case of `NCCc1c[nH]c2ccc(O)cc12` [serotonin], the dietary fat intake (injections into the PVN) is given as “inhibited dietary fat intake”.
